Measurements as given in patent US10143638B2, “Method of treating skin with ingenol mebutate” (LEO Laboratories Limited, priority 2009, dated 2018).

Tested on: dermal fibroblasts
Test: De novo hyaluronan molecular weight ([3H]-glucosamine incorporation, gel filtration)
Format: cell-based, human
Conditions: PEP005 0.01-10 μg/ml, presence or absence of TGF-β1, day 1 and day 3
Description: Hyaluronan molecular weight sizing, following dermal fibroblast synthesis, was performed as previously described (Meran et al, 2008; Simpson et al, 2009). Dermal fibroblasts were seeded in 6-well tissue culture plates, in PEP005-free, Fibroblast-Serum Containing Medium (2 ml), at 1.5×10^5 cells/well. Dermal fibroblasts were maintained at 37° C., in a 5% CO2/95% air atmosphere, for 48 h, prior to washing in phosphate buffered saline (PBS, 2×2 ml) and maintenance in serum-free, Fibroblast-Serum Containing Medium (2 ml), for a further 48 h. At 48 h, the serum-free, Fibroblast-Serum Containing Medium was replenished with serum-free, Fibroblast-Serum Containing Medium (2 ml), containing 0 μg/ml, 0.01 μg/ml, 0.1 μg/ml, 1 μg/ml, 10 μg/ml or 100 μg/ml PEP005, +/−TGF-β1 (10 ng/ml) (three culture wells per PEP005 concentration), in addition to [^3H]-glucosamine (20 μCi/ml, G.E. Healthcare). The dermal fibroblasts were maintained at 37° C., in a 5% CO2/95% air atmosphere, for 24 h or 72 h. […]
Aliquots (20 μl×3) of each Extract fraction were transferred into scintillation vials, followed by the addition of 70% ethanol (600 μl) and liquid scintillant (4 ml). Scintillation vials were vortexed and [^3H]-incorporation quantified using a Packard Tri-Carb 1900CA Liquid Scintillation Analyzer (Perkin Elmer), with values obtained being expressed as disintegrations per minute (dpm). […]

SMILES: C/C=C(/C)C(=O)O[C@H]1C(C)=C[C@]23C(=O)[C@@H](C=C(CO)[C@@H](O)[C@]12O)[C@H]1[C@@H](C[C@H]3C)C1(C)C [PEP005, ingenol-3-angelate]
- molecular weight of hyaluronan synthesized: predominantly of high (>1.5×10^6 Da) and medium (<1.5×10^6-4×10^5 Da) molecular weight
